HELM strings list units from the 5' end as sugar, base in round brackets, then linkage (d deoxyribose, r ribose, m 2'-O-methyl, p phosphodiester). Strings are as the collection lists them; they lack the last nucleoside at the 3' end of the tested compound. [moe] = 2'-O-(2-methoxyethyl) (MOE); [sp] = phosphorothioate linkage; [m5C] = 5-methylcytosine
What follows are substances tested against GFAP (assay: mouse, dose not given). Conditions: ASO.

Substance | 3 h FOB score [score 0-7]
RNA1{[moe](A)[sp].[moe]([m5C])p.[moe](G)p.[moe](T)p.[moe]([m5C])p.d(A)[sp].d([m5C])[sp].d(A)[sp].d(T)[sp].d(T)[sp].d([m5C])[sp].d(A)[sp].d([m5C])[sp].d(T)[sp].d(A)[sp].[moe](A)p.[moe](T)p.[moe](A)[sp].[moe](T)}$$$$ (last 3' nucleoside missing) | 0
RNA1{[moe](A)[sp].[moe]([m5C])p.[moe](G)p.[moe](T)p.[moe]([m5C])p.[moe](A)p.d([m5C])[sp].d(A)[sp].d(T)[sp].d(T)[sp].d([m5C])[sp].d(A)[sp].d([m5C])[sp].d(T)[sp].d(A)[sp].d(A)[sp].[moe](T)p.[moe](A)[sp].[moe](T)}$$$$ (last 3' nucleoside missing) | 0
RNA1{[moe]([m5C])[sp].[moe](T)p.[moe](A)p.[moe](G)p.[moe](T)p.[moe]([m5C])p.d(A)[sp].d(G)[sp].d([m5C])[sp].d([m5C])[sp].d(T)[sp].d(G)[sp].d(G)[sp].d(T)[sp].d(T)[sp].d(A)[sp].[moe](G)p.[moe]([m5C])[sp].[moe]([m5C])}$$$$ (last 3' nucleoside missing) | 4
RNA1{[moe]([m5C])[sp].[moe](A)p.[moe](T)p.[moe](T)p.[moe]([m5C])[sp].d(A)[sp].d([m5C])[sp].d(T)[sp].d(A)[sp].d(A)[sp].d(T)[sp].d(A)[sp].d(T)[sp].[moe](T)p.[moe](T)p.[moe](A)[sp].[moe](A)}$$$$ (last 3' nucleoside missing) | 0
RNA1{[moe](A)[sp].[moe](G)p.[moe](G)p.[moe](G)p.[moe](T)[sp].d(G)[sp].d(G)[sp].d([m5C])[sp].d(T)[sp].d(T)[sp].d([m5C])[sp].d(A)[sp].d(T)[sp].d([m5C])[sp].d(T)[sp].[moe](G)p.[moe]([m5C])p.[moe](T)[sp].[moe](T)}$$$$ (last 3' nucleoside missing) | 2
RNA1{[moe](G)[sp].[moe](T)p.[moe](G)p.[moe](T)p.[moe](G)[sp].d(T)[sp].d(A)[sp].d(T)[sp].d(T)[sp].d(A)[sp].d(G)[sp].d(G)[sp].d(A)[sp].d(T)[sp].d([m5C])[sp].[moe]([m5C])p.[moe]([m5C])p.[moe](A)[sp].[moe](T)}$$$$ (last 3' nucleoside missing) | 6
RNA1{[moe](A)[sp].[moe](G)p.[moe](A)p.[moe](G)p.d(T)[sp].d(G)[sp].d(T)[sp].d(G)[sp].d(T)[sp].d(A)[sp].d(T)[sp].d(T)[sp].d(A)[sp].d(G)[sp].[moe](G)p.[moe](A)p.[moe](T)p.[moe]([m5C])[sp].[moe]([m5C])}$$$$ (last 3' nucleoside missing) | 5
RNA1{[moe](G)[sp].[moe](A)p.[moe](G)p.[moe](T)p.d(G)[sp].d(T)[sp].d(G)[sp].d(T)[sp].d(A)[sp].d(T)[sp].d(T)[sp].d(A)[sp].d(G)[sp].d(G)[sp].[moe](A)p.[moe](T)p.[moe]([m5C])p.[moe]([m5C])[sp].[moe]([m5C])}$$$$ (last 3' nucleoside missing) | 4
RNA1{[moe]([m5C])[sp].[moe](A)p.[moe](T)p.[moe](T)p.[moe](T)[sp].d(G)[sp].d(T)[sp].d([m5C])[sp].d(T)[sp].d(T)[sp].d(T)[sp].d(A)[sp].d(T)[sp].[moe](T)p.[moe](T)p.[moe](T)[sp].[moe](T)}$$$$ (last 3' nucleoside missing) | 0
RNA1{[moe](G)[sp].[moe]([m5C])p.[moe](T)p.[moe]([m5C])p.[moe]([m5C])[sp].d([m5C])[sp].d(A)[sp].d([m5C])[sp].d(A)[sp].d([m5C])[sp].d(T)[sp].d(A)[sp].d([m5C])[sp].d(A)[sp].d(T)[sp].[moe](A)p.[moe](T)p.[moe](A)[sp].[moe](A)}$$$$ (last 3' nucleoside missing) | 2
RNA1{[moe](T)[sp].[moe]([m5C])p.[moe]([m5C])p.[moe](T)p.[moe](G)[sp].d([m5C])[sp].d([m5C])[sp].d(T)[sp].d([m5C])[sp].d(A)[sp].d([m5C])[sp].d(A)[sp].d(T)[sp].d([m5C])[sp].d(A)[sp].[moe]([m5C])p.[moe](A)p.[moe](T)[sp].[moe]([m5C])}$$$$ (last 3' nucleoside missing) | 0
RNA1{[moe]([m5C])[sp].[moe](G)p.[moe](T)p.[moe]([m5C])p.[moe](A)[sp].d([m5C])[sp].d(A)[sp].d(T)[sp].d(T)[sp].d([m5C])[sp].d(A)[sp].d([m5C])[sp].d(T)[sp].[moe](A)p.[moe](A)p.[moe](T)[sp].[moe](A)}$$$$ (last 3' nucleoside missing) | 0
RNA1{[moe](G)[sp].[moe](G)p.[moe]([m5C])p.[moe](A)p.[moe](G)p.[moe](T)p.d(A)[sp].d(T)[sp].d(T)[sp].d(A)[sp].d([m5C])[sp].d([m5C])[sp].d(T)[sp].d([m5C])[sp].d(T)[sp].d(A)[sp].[moe]([m5C])p.[moe](T)[sp].[moe](A)}$$$$ (last 3' nucleoside missing) | 3
RNA1{[moe](G)[sp].[moe](T)p.[moe](T)p.[moe](T)p.[moe]([m5C])[sp].d([m5C])[sp].d(T)[sp].d(T)[sp].d(T)[sp].d(T)[sp].d(A)[sp].d([m5C])[sp].d([m5C])[sp].d(A)[sp].d(A)[sp].[moe](G)p.[moe]([m5C])p.[moe](T)[sp].[moe](G)}$$$$ (last 3' nucleoside missing) | 4
RNA1{[moe]([m5C])[sp].[moe](A)p.[moe](G)p.[moe]([m5C])p.d([m5C])[sp].d(T)[sp].d(G)[sp].d(G)[sp].d(T)[sp].d(T)[sp].d(A)[sp].d(G)[sp].d([m5C])[sp].d([m5C])[sp].[moe](T)p.[moe](T)p.[moe](T)p.[moe]([m5C])[sp].[moe](T)}$$$$ (last 3' nucleoside missing) | 4
RNA1{[moe](T)[sp].[moe]([m5C])p.[moe](T)p.[moe](G)p.[moe]([m5C])[sp].d(T)[sp].d([m5C])[sp].d(G)[sp].d(G)[sp].d(G)[sp].d([m5C])[sp].d([m5C])[sp].d([m5C])[sp].d([m5C])[sp].d(T)[sp].[moe]([m5C])p.[moe](A)p.[moe](T)[sp].[moe](G)}$$$$ (last 3' nucleoside missing) | 2
RNA1{[moe](G)[sp].[moe]([m5C])p.[moe](A)p.[moe](T)p.[moe](T)p.[moe](T)p.d(G)[sp].d(T)[sp].d([m5C])[sp].d(T)[sp].d(T)[sp].d(T)[sp].d(A)[sp].d(T)[sp].d(T)[sp].d(T)[sp].[moe](T)p.[moe](T)[sp].[moe]([m5C])}$$$$ (last 3' nucleoside missing) | 1
RNA1{[moe](G)[sp].[moe](A)p.[moe](G)p.[moe](A)p.[moe]([m5C])[sp].d(A)[sp].d(T)[sp].d(G)[sp].d([m5C])[sp].d(A)[sp].d(T)[sp].d(A)[sp].d(T)[sp].d([m5C])[sp].d(T)[sp].[moe](A)p.[moe](G)p.[moe](T)[sp].[moe](G)}$$$$ (last 3' nucleoside missing) | 6
RNA1{[moe](T)[sp].[moe](G)p.[moe](G)p.[moe]([m5C])p.d(A)[sp].d(G)[sp].d(T)[sp].d(A)[sp].d(T)[sp].d(T)[sp].d(A)[sp].d([m5C])[sp].d([m5C])[sp].d(T)[sp].[moe]([m5C])p.[moe](T)p.[moe](A)p.[moe]([m5C])[sp].[moe](T)}$$$$ (last 3' nucleoside missing) | 1
RNA1{[moe](G)[sp].[moe](T)p.[moe]([m5C])p.[moe](T)p.[moe]([m5C])[sp].d(A)[sp].d(G)[sp].d(T)[sp].d(T)[sp].d(T)[sp].d(T)[sp].d([m5C])[sp].d([m5C])[sp].d(T)[sp].d([m5C])[sp].[moe]([m5C])p.[moe](A)p.[moe](G)[sp].[moe]([m5C])}$$$$ (last 3' nucleoside missing) | 0
RNA1{[moe]([m5C])[sp].[moe](T)p.[moe]([m5C])p.[moe]([m5C])p.[moe](A)[sp].d(T)[sp].d([m5C])[sp].d(T)[sp].d([m5C])[sp].d(T)[sp].d(G)[sp].d(G)[sp].d([m5C])[sp].d(A)[sp].d(A)[sp].[moe]([m5C])p.[moe](A)p.[moe](G)[sp].[moe](T)}$$$$ (last 3' nucleoside missing) | 4
RNA1{[moe](G)[sp].[moe](T)p.[moe]([m5C])p.[moe](A)p.[moe](G)[sp].d([m5C])[sp].d([m5C])[sp].d(T)[sp].d(G)[sp].d(G)[sp].d(T)[sp].d(T)[sp].d(A)[sp].d(G)[sp].d([m5C])[sp].[moe]([m5C])p.[moe](T)p.[moe](T)[sp].[moe](T)}$$$$ (last 3' nucleoside missing) | 6
RNA1{[moe](G)[sp].[moe]([m5C])p.[moe](T)p.[moe](T)p.d(T)[sp].d(T)[sp].d(G)[sp].d(A)[sp].d(G)[sp].d(A)[sp].d(T)[sp].d(A)[sp].d(T)[sp].d([m5C])[sp].[moe](T)p.[moe](T)p.[moe](G)p.[moe](T)[sp].[moe](G)}$$$$ (last 3' nucleoside missing) | 1
RNA1{[moe](G)[sp].[moe](A)p.[moe](T)p.[moe](T)p.[moe](T)[sp].d(T)[sp].d([m5C])[sp].d([m5C])[sp].d([m5C])[sp].d([m5C])[sp].d(G)[sp].d(T)[sp].d([m5C])[sp].d(T)[sp].d(T)[sp].[moe](T)p.[moe](G)p.[moe](G)[sp].[moe](T)}$$$$ (last 3' nucleoside missing) | 6
RNA1{[moe](A)[sp].[moe](G)p.[moe](T)p.[moe](G)p.[moe](T)[sp].d(G)[sp].d(T)[sp].d(A)[sp].d(T)[sp].d(T)[sp].d(A)[sp].d(G)[sp].d(G)[sp].d(A)[sp].d(T)[sp].[moe]([m5C])p.[moe]([m5C])p.[moe]([m5C])[sp].[moe](A)}$$$$ (last 3' nucleoside missing) | 5
RNA1{[moe]([m5C])[sp].[moe](T)p.[moe](G)p.[moe]([m5C])p.[moe]([m5C])[sp].d(A)[sp].d(T)[sp].d(T)[sp].d(T)[sp].d(A)[sp].d(T)[sp].d([m5C])[sp].d(T)[sp].[moe](G)p.[moe](T)p.[moe](G)[sp].[moe]([m5C])}$$$$ (last 3' nucleoside missing) | 1
